Laboratory results from patent US9328083B2, “2-aminated methylene or 2-esterified methylene tanshinone derivatives, and preparation method and application thereof” (HANGZHOU BENSHENG PHARMACEUTICAL CO., LTD., priority 2011, dated 2016).
Converted amounts (≈) assume the structure as drawn.

Tests used:
[1] = system: Jurkat (acute lymphoblastic leukemia, ALL); test: MTT growth inhibition of leukemia cells, 72 h; assay type: cell-based, human; conditions: Homo sapiens, 72 h; for IC50: read-out: IC50; for IC90: read-out: IC90
Source text: (§1) Leukemia cell lines: leukemia cell lines: K562/adr (drug-resistant, chronic myeloid leukemia, CML), NB4 (acute promyelocytic leukemia, AML), Kasumi-1 (acute myeloid leukemia M2 type, AML-M2), and Jurkat (acute lymphoblastic leukemia, ALL), all of which are donated by Cancer Research Institute of Zhejiang University, China; and H9 (acute lymphoblastic leukemia, ALL), which is purchased from China Center for Type Culture Collection (CCTCC).
(§2) The standard sample of tanshinone I (TA) and the 2-aminated methylene or 2-esterified methylene tanshinone I derivatives of the present invention are sufficiently dissolved with dimethylsulfoxide to produce a stock solution of 10 mg/mL, which is refrigerated at 4° C. and stored in dark, and is diluted with a cell culture medium to the desired concentration prior to experimentation.
(§3) Obtaining 6000 well-growing leukemia cells and inoculating them into wells of a 96-well cell culture plate. The culture medium is the RPMI-1640 cell culture medium containing 10% fetal bovine serum. After adding on the second day the 2-aminated methylene or 2-esterified methylene tanshinone I derivatives of different concentrations and mixing uniformly, placing the plate in a carbon dioxide cell incubator (5% CO2) at 37° C. and incubated for 72 hours. Then the viable cell concentration is determined by MTT method.

[2] = system: NB4 (acute promyelocytic leukemia, AML); test: MTT growth inhibition of leukemia cells, 72 h; assay type: cell-based, human; conditions: Homo sapiens, NB4, 72 h; for IC50: read-out: IC50; for IC90: read-out: IC90
Source text: as §1, §2, §3

[3] = system: K562/adr (drug-resistant, chronic myeloid leukemia, CML); test: MTT growth inhibition of leukemia cells, 72 h; assay type: cell-based, human; conditions: Homo sapiens, K562/Adr; for IC50: read-out: IC50; for IC90: read-out: IC90
Source text: as §1, §2, §3

[4] = system: Kasumi-1 (acute myeloid leukemia M2 type, AML-M2); test: MTT growth inhibition of leukemia cells, 72 h; assay type: cell-based, human; conditions: Homo sapiens, Kasumi-1, 72 h; for IC50: read-out: IC50; for IC90: read-out: IC90
Source text: as §1, §2, §3

[5] = system: H9 (acute lymphoblastic leukemia, ALL); test: MTT growth inhibition of leukemia cells, 72 h; assay type: cell-based, human; conditions: Homo sapiens, H9, 72 h; for IC50: read-out: IC50; for IC90: read-out: IC90
Source text: as §1, §2, §3

[6] = system: MGC 803 (human gastric cancer cell); test: MTT growth inhibition of human solid tumor cells, 72 h; assay type: cell-based; conditions: Homo sapiens, MGC-803, 72 h; for IC50: read-out: IC50; for IC90: read-out: IC90
Description: (§4) Hep-2 (laryngeal carcinoma), A549 (human lung cancer), CaES-17 (esophageal cancer cell), PC-3 (prostate cancer), CNE (nasopharyngeal carcinoma cell), and SK-OV-3 (ovarian cancer cell), all of which are purchased from China Center For Type Culture Collection; RKO (human colon adenocarcinoma cell), MGC 803 (human gastric cancer cell), MG63 (osteosarcoma) and U87 MG (malignant glioma cell), all of which are purchased from Fuxiang Bio-tech Co. Ltd., Shanghai, China; PANC-1 (pancreatic cancer), Hep G2 (human liver cancer cell), Becap37 (human breast cancer cell) and Hela (human cervical cancer cell), all of which are donated by Cancer Research Institute of Zhejiang University, China.
as §2
(§5) Obtaining 4000 well-growing human solid tumor cells and inoculating them into wells of a 96-well cell culture plate. The culture medium is DMEM High Glucose cell culture medium containing 10% fetal bovine serum. The plate is placed in a carbon dioxide cell incubator (5% CO2) at 37° C. and incubated for 24 hours. After adding the 2-aminated methylene or 2-esterified methylene tanshinone I derivatives of different concentrations and mixing uniformly, the plate is placed in a carbon dioxide cell incubator (5% CO2) at 37° C. and incubated for 72 hours. Then the viable cell concentration is determined by the MTT method.

[7] = system: CaES-17 (esophageal cancer cell); test: as above; assay type: cell-based; conditions: Homo sapiens, CaEs17, CaEs-17, 72 h; for IC50: read-out: IC50; for IC90: read-out: IC90
Description: as §4, §2, §5

[8] = system: U87 MG (malignant glioma cell); test: as above; assay type: cell-based; conditions: Homo sapiens, U-87 MG, U87-MG, 72 h; for IC50: read-out: IC50; for IC90: read-out: IC90
Description: as §4, §2, §5

[9] = system: RKO (human colon adenocarcinoma cell); test: as above; assay type: cell-based; conditions: Homo sapiens; for IC50: read-out: IC50; for IC90: read-out: IC90
Description: as §4, §2, §5

MG63 (osteosarcoma) = test: as above; assay type: cell-based; conditions: Homo sapiens, MG-63, 72 h; for IC50: read-out: IC50; for IC90: read-out: IC90
Description: as §4, §2, §5

[10] = system: SK-OV-3 (ovarian cancer cell); test: as above; assay type: cell-based; conditions: Homo sapiens, SK-OV-3, 72 h; for IC50: read-out: IC50; for IC90: read-out: IC90
Description: as §4, §2, §5

A549 (human lung cancer) = test: as above; assay type: cell-based; conditions: Homo sapiens, A549, 72 h; for IC50: read-out: IC50; for IC90: read-out: IC90
Description: as §4, §2, §5

[11] = system: PANC-1 (pancreatic cancer); test: as above; assay type: cell-based; conditions: Homo sapiens, PANC-1, 72 h; for IC50: read-out: IC50; for IC90: read-out: IC90
Description: as §4, §2, §5

[12] = system: CNE (nasopharyngeal carcinoma cell); test: as above; assay type: cell-based; conditions: Homo sapiens; for IC50: read-out: IC50; for IC90: read-out: IC90
Description: as §4, §2, §5

[13] = system: Becap37 (human breast cancer cell); test: as above; assay type: cell-based; conditions: Homo sapiens, Becap-37, 72 h; for IC50: read-out: IC50; for IC90: read-out: IC90
Description: as §4, §2, §5

[14] = system: Hela (human cervical cancer cell); test: as above; assay type: cell-based; conditions: Homo sapiens, HeLa, 72 h; for IC50: read-out: IC50; for IC90: read-out: IC90
Description: as §4, §2, §5

[15] = system: Hep-2 (laryngeal carcinoma); test: as above; assay type: cell-based; conditions: Homo sapiens, HEp-2, 72 h; for IC50: read-out: IC50; for IC90: read-out: IC90
Description: as §4, §2, §5

[16] = system: Hep G2 (human liver cancer cell); test: as above; assay type: cell-based; conditions: Homo sapiens, HepG2, Hep G2, 72 h; for IC50: read-out: IC50; for IC90: read-out: IC90
Description: as §4, §2, §5

PC-3 (prostate cancer) = test: as above; assay type: cell-based; conditions: Homo sapiens, PC-3, 72 h; for IC50: read-out: IC50; for IC90: read-out: IC90
Description: as §4, §2, §5

[17] = system: RPMI8226 (multiple myeloma); test: MTT growth inhibition of multiple myeloma cells, 72 h; assay type: cell-based, human; conditions: Homo sapiens, RPMI 8226, 72 h; for IC50: read-out: IC50; for IC90: read-out: IC90
Description: Myeloma cell lines: RPMI8226 (multiple myeloma), purchased from Fuxiang Bio-tech Co. Ltd., Shanghai, China.
as §2
as §3, with “myeloma” for “leukemia”, “cells as above” for “cells”, “1640” for “RPMI-1640”, “adding” for “adding on the second day”

SMILES	IC50 [1]	IC90 [1]	IC50 [2]	IC90 [2]	IC50 [3]	IC90 [3]	IC50 [4]	IC90 [4]	IC50 [5]	IC90 [5]	IC50 [6]	IC90 [6]	IC50 [7]	IC90 [7]	IC50 [8]	IC90 [8]	IC50 [9]	IC90 [9]	IC50 (MG63 (osteosarcoma))	IC90 (MG63 (osteosarcoma))	also measured
CCCCNCc1oc2c(c1C)C(=O)C(=O)c1c-2ccc2c(C)cccc12 [BS-TA-B10]	> 16 µg/mL	> 16 µg/mL	5.79 µg/mL (≈ 16 µM)	15.4 µg/mL (≈ 42.7 µM)	0.76 µg/mL (≈ 2.1 µM)	1.8 µg/mL (≈ 4.98 µM)	0.4 µg/mL (≈ 1.11 µM)	0.92 µg/mL (≈ 2.55 µM)	6 µg/mL (≈ 16.6 µM)	> 16 µg/mL	> 16 µg/mL	> 16 µg/mL	> 16 µg/mL	> 16 µg/mL	> 16 µg/mL	> 16 µg/mL	5.47 µg/mL (≈ 15.1 µM)	> 16 µg/mL	> 16 µg/mL	> 16 µg/mL	IC50 [10]: > 16 µg/mL; IC90 [10]: > 16 µg/mL; IC50 (A549 (human lung cancer)): 1.28 µg/mL (≈ 3.54 µM); IC90 (A549 (human lung cancer)): 6 µg/mL (≈ 16.6 µM); IC50 [11]: 0.88 µg/mL (≈ 2.43 µM); IC90 [11]: 5.82 µg/mL (≈ 16.1 µM); IC50 [12]: > 16 µg/mL; IC90 [12]: > 16 µg/mL; IC50 [13]: > 16 µg/mL; IC90 [13]: > 16 µg/mL; IC50 [14]: 15.6 µg/mL (≈ 43 µM); IC90 [14]: > 16 µg/mL; IC50 [15]: 15.8 µg/mL (≈ 43.6 µM); IC90 [15]: > 16 µg/mL; IC50 [16]: > 16 µg/mL; IC90 [16]: > 16 µg/mL; IC50 (PC-3 (prostate cancer)): > 16 µg/mL; IC90 (PC-3 (prostate cancer)): > 16 µg/mL; IC50 [17]: 15.8 µg/mL (≈ 43.8 µM); IC90 [17]: > 16 µg/mL
C#CCNCc1oc2c(c1C)C(=O)C(=O)c1c-2ccc2c(C)cccc12 [BS-TA-B21]	3.41 µg/mL (≈ 9.93 µM)	9.55 µg/mL (≈ 27.8 µM)	1.53 µg/mL (≈ 4.46 µM)	5.46 µg/mL (≈ 15.9 µM)	1.3 µg/mL (≈ 3.79 µM)	2.73 µg/mL (≈ 7.95 µM)	0.83 µg/mL (≈ 2.42 µM)	1.8 µg/mL (≈ 5.24 µM)	2.2 µg/mL (≈ 6.41 µM)	5.9 µg/mL (≈ 17.2 µM)	7.01 µg/mL (≈ 20.4 µM)	17.3 µg/mL (≈ 50.4 µM)	8.71 µg/mL (≈ 25.4 µM)	14.2 µg/mL (≈ 41.5 µM)	6.79 µg/mL (≈ 19.8 µM)	21.3 µg/mL (≈ 62.1 µM)	2.46 µg/mL (≈ 7.16 µM)	27.9 µg/mL (≈ 81.1 µM)	4.68 µg/mL (≈ 13.6 µM)	15.3 µg/mL (≈ 44.6 µM)	IC50 [10]: > 16 µg/mL; IC90 [10]: > 16 µg/mL; IC50 (A549 (human lung cancer)): 1.8 µg/mL (≈ 5.24 µM); IC90 (A549 (human lung cancer)): 10 µg/mL (≈ 29.1 µM); IC50 [11]: 1.14 µg/mL (≈ 3.32 µM); IC90 [11]: 7.28 µg/mL (≈ 21.2 µM); IC50 [12]: 5.99 µg/mL (≈ 17.4 µM); IC90 [12]: 79 µg/mL (≈ 230 µM); IC50 [13]: 6.73 µg/mL (≈ 19.6 µM); IC90 [13]: 15.1 µg/mL (≈ 43.9 µM); IC50 [14]: 3.3 µg/mL (≈ 9.61 µM); IC90 [14]: 7.9 µg/mL (≈ 23 µM); IC50 [15]: 5.16 µg/mL (≈ 15 µM); IC90 [15]: 23.7 µg/mL (≈ 69 µM); IC50 [16]: 7.3 µg/mL (≈ 21.3 µM); IC90 [16]: 25.8 µg/mL (≈ 75 µM); IC50 (PC-3 (prostate cancer)): 7.3 µg/mL (≈ 21.3 µM); IC90 (PC-3 (prostate cancer)): 15.1 µg/mL (≈ 44 µM); IC50 [17]: 5.78 µg/mL (≈ 16.8 µM); IC90 [17]: 10.5 µg/mL (≈ 30.5 µM)
